Laboratory results: patent US8283368B2, “Selective ligands for the dopamine 3 (D3) receptor and methods of using the same” (The Regents of the University of Michigan, priority 2008, dated 2012)
Entries after “also recorded” stand apart in the source; their conditions may differ. Where two headings read alike, the source gives them in different places.

Tests used:
[1] = target: D1-like dopamine receptors; test: [3H]SCH 23390 binding assay for D1-like dopamine receptors, rat brain membranes; details: single-site model, read-out: Ki ± SEM D1-like [3H]SCH23390
Procedure: (§1) All other Ki values are based on a single-site model.
(§2) Determination of D3 dopamine receptor affinity and selectivity were performed in membranes prepared from the brains of adult, male Sprague-Dawley rats (Harlan Sprague-Dawley, Indianapolis, Ind.). All compounds were dissolved in 100% ethanol at a concentration of 5 mM.

D2 receptor [2] = target: T1, D2 receptor (Rattus norvegicus, UniProt P61169); test: [3H]Spiperone binding assay for D2-like receptors, rat caudate-putamen membranes; design: from tissue; host or cells: rat caudate-putamen membranes; details: for Ki: rat brain
Procedure: as §1, §2
[^3H]Spiperone binding assays. […] Assays were performed using membranes prepared from rat caudate-putamen, which predominantly express the D2 subtype of D2-like receptors, and the final membrane homogenate concentration was 1.5 mg o.w.w./ml. The assay buffer was 50 mM Tris-HCl, 5 mM KCl, 2 mM MgCl2, and 2 mM CaCl2, pH 7.4 at 23° C.; the concentration of [^3H]spiperone (24 Ci/mmol; Amersham) was 0.2 nM; and the incubation time was 90 minutes at 23° C. Nonspecific binding was defined in the presence of 1 μM (+)-butaclamol.

[3] = background statement on known compounds; cited from earlier work
D3 receptor = target: T2, D3 receptor (Rattus norvegicus, UniProt P19020); test: [3H]PD 128907 binding assay for D3 receptors, rat ventral striatum membranes; details: for Selectivity D1-like/D3 / Selectivity D2-like/D3: ratio of Ki values, Table 1; for less potent than compound 6 to the D3 receptor: Ki compared with compound 6
T2 construct: membranes prepared from the brains of adult, male Sprague-Dawley rats; from tissue; host or cells: rat ventral striatum (nucleus accumbens and olfactory tubercles) membranes
Procedure: as §1, §2
Rat ventral striatum (nucleus accumbens and olfactory tubercles) was prepared in assay buffer (50 mM Tris, 1 mM EDTA; pH 7.4 at 23° C.) to yield a final concentration of 10 mg original wet weight (o.w.w.)/ml. […] Nonspecific binding was defined by 1 μM spiperone. Assay tubes were incubated at 23° C. for 3 hours. The reaction was terminated by rapid vacuum filtration.

Aqueous solubility = type: physicochemical
D2 receptor [4] = target: T1, D2 receptor; test: In vivo hypothermia assay in rats (D2 agonist activity); design: compounds 5, 6, and 12 in yawning and hypothermia assays in rats; from tissue; host or cells: living rats (Harlan), core body temperature read-out; details: for in vivo functional activity at the D2 receptor: concluded from hypothermia in rats; for induction of hypothermia / changes in body temperature: rats, s.c.
Procedure: Recently, in vivo functional assays for the D3 and D2 receptors have been validated. (24,25). […] By employing these validated assays, compounds 5, 6, and 12 were evaluated for their in vivo functional activity at the D3 and D2 receptors.
(§3) Rats were purchased from Harlan (Indianapolis, Ind.) and housed three to a cage for yawning studies, and one to a cage for hypothermia studies. […] Yawning studies were performed as previously described (24,25), with yawning defined as a prolonged (about 1 second), wide opening of the mouth followed by a rapid closure. […] Yawning was recorded for 30 minutes after each injection. […] Yawns and changes in core body temperature are presented as the mean±standard error of the mean (SEM) with 8 (yawning) or 6 (hypothermia) rats per group.

D2 receptor [5] = target: T1, D2 receptor; test: Alteration of pramipexole induced hypothermia in rats; type: in vivo; design: compounds 5, 6, and 12 in yawning and hypothermia assays in rats; from tissue; host or cells: living rats (Harlan), core body temperature read-out; details: rats pretreated with 10.0 or 32.0 mg/kg
Procedure: as §3

[6] = single-site model, read-out: Ki ± SEM D2 [3H]Spiperone
[7] = rat brain, single-site model, mean±SEM of three to five determinations, read-out: Ki ± SEM D3 [3H]PD128907
[8] = 2-site fit, high affinity component, read-out: Ki ± SEM D2 [3H]Spiperone, high affinity component (h)
[9] = 2-site fit, low affinity component, read-out: Ki ± SEM D2 [3H]Spiperone, low affinity component (1)

T1 sequence (P61169 whole entry): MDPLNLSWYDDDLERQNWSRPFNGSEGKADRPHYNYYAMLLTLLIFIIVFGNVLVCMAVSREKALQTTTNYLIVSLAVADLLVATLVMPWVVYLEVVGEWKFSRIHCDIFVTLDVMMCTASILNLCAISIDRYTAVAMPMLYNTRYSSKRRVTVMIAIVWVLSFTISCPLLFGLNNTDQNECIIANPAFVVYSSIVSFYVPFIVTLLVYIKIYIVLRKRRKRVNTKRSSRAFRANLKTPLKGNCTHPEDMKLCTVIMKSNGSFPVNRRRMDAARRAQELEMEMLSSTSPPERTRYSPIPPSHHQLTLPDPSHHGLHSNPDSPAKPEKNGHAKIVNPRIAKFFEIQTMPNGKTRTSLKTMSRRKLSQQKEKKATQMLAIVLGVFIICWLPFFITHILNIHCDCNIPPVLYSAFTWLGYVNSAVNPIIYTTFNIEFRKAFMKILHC
T2 sequence (P19020 whole entry): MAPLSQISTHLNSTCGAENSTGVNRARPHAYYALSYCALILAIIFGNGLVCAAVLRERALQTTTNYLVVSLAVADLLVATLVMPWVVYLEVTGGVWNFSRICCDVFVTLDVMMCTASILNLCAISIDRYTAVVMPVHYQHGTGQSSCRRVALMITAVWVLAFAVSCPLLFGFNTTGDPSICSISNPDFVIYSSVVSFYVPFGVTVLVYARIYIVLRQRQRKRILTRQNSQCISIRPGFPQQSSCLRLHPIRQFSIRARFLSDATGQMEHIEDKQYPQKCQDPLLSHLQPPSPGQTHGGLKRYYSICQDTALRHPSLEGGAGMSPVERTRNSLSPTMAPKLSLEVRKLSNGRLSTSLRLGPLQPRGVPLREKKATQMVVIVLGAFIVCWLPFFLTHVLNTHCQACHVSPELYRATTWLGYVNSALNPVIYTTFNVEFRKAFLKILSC

Compound	Ki [1] [nM]	Ki (D2 receptor [2]; [6]) [nM]	Selectivity D1-like/D3 (D3 receptor)	Selectivity D2-like/D3 (D3 receptor)	Ki (D3 receptor; [7]) [nM]	aqueous solubility (Aqueous solubility)	in vivo functional activity at the D2 receptor (D2 receptor [4])	induction of hypothermia / changes in body temperature (D2 receptor [4])	also measured
COc1ccc2c(c1)CCC1CN(CCC3CCC(NC(=O)c4ccc5ccccc5c4)CC3)CCN21 (centres unmarked) [Compound 4, reference compound]	> 50000	> 10000	>5000	>1000					aqueous solubility, known compounds [3]: poor aqueous solubility; Ki (D3 receptor): 5.7 ± 0.4 nM
CC(C)CCN(CC[C@H]1CC[C@H](NC(=O)c2ccc3ccccc3c2)CC1)[C@H]1CCc2nc(N)sc2C1 [Compound 8, Trans-N-(4-(2-(((S)-2-amino-4,5,6,7-tetrahydrobenzo[d]thiazol-6-yl)(isopentyl)amino)ethyl)cyclohexyl)-2-naphthamide]	13000	345 ± 33	>5,000	157	2.2 ± 0.1				less potent than compound 6 to the D3 receptor (D3 receptor): 5 times
CCCN(CC[C@H]1CC[C@H](NC(=O)c2ccc3ccccc3c2)CC1)[C@H]1CCc2nc(N)sc2C1 [Compound 6, Trans-N-(4-(2-(((S)-2-amino-4,5,6,7-tetrahydrobenzo[d]thiazol-6-yl)(propyl)amino)ethyl)cyclohexyl)-2-naphthamide]						good aqueous solubility	no detectable agonist activity at the D2 receptor	failed to induce changes in body temperature	aqueous solubility (Aqueous solubility; dihydrochloride salt form): greater than 100 mg/ml
CCCCN(CC[C@H]1CC[C@H](NC(=O)c2ccc3ccccc3c2)CC1)[C@H]1CCc2nc(N)sc2C1 [Compound 7, Trans-N-(4-(2-(((S)-2-amino-4,5,6,7-tetrahydrobenzo[d]thiazol-6-yl)(butyl)amino)ethyl)cyclohexyl)-2-naphthamide]	5400		>7,000	74	0.74 ± 0.083				Ki (D2 receptor [2]; [8]): 55 ± 12 nM; Ki (D2 receptor [2]; [9]): 1300 ± 180 nM; less selectivity for the D3 receptor over the D2 receptor than compound 6 (D3 receptor; D2 high affinity binding component): ~10 fold
CCCN(CCCCNC(=O)c1ccc2ccccc2c1)[C@H]1CCc2nc(N)sc2C1 [Compound 5, (S)—N-(4-((2-amino-4,5,6,7-tetrahydrobenzo[d]thiazol-6-yl)(propyl)amino)butyl)-2-naphthamide]					0.043 ± 0.006	good aqueous solubility	full agonist at the D3 and D2 receptors in vivo	hypothermia was induced by compound 5 at higher doses	Ki (D2 receptor [2]; [8]): 2.7 ± 0.4 nM; Ki (D2 receptor [2]; [9]): 6700 ± 1500 nM
CCCN[C@H]1CCc2nc(N)sc2C1 [Compound 1, pramipexole, reference compound]	> 100000						D2 agonist at higher doses	induction of hypothermia occurring at higher doses	

The next lines start with results.

Ki [1] [nM]	Ki (D2 receptor [2]; [6]) [nM]	Selectivity D1-like/D3 (D3 receptor)	Selectivity D2-like/D3 (D3 receptor)	Ki (D3 receptor; [7]) [nM]	aqueous solubility (Aqueous solubility)	Compound	in vivo functional activity at the D2 receptor (D2 receptor [4])	induction of hypothermia / changes in body temperature (D2 receptor [4])	also measured
64000	670 ± 140	>8,000	88	7.6		Nc1nc2c(s1)C[C@@H](NCC[C@H]1CC[C@H](NC(=O)c3ccc4ccccc4c3)CC1)CC2 [Compound 10, Trans-N-(4-(2-((S)-2-amino-4,5,6,7-tetrahydrobenzo[d]thiazol-6-ylamino)ethyl)cyclohexyl)-2-naphthamide]			less potent than compound 6 to the D3 receptor (D3 receptor): 19 times
	1200			23 ± 2.7		Nc1nc2c(s1)C[C@@H](N(CCC1CCCCC1)CC[C@H]1CC[C@H](NC(=O)c3ccc4ccccc4c3)CC1)CC2 [Compound 9, Trans-N-(-4-(2-(((S)-2-amino-4,5,6,7-tetrahydrobenzo[d]thiazol-6-yl)(2-cyclohexylethyl)amino)ethyl)cyclohexyl)-2-naphthamide]			less potent than compound 6 to the D2 receptor (D2 receptor [2]; Ki compared with compound 6): 3 times
	68 ± 4.6					CCCN(CC[C@H]1CC[C@H](NC(=O)c2cc3ccccc3o2)CC1)[C@H]1CCc2nc(N)sc2C1 [Compound 11, Trans-N-(4-(2-(((S)-2-amino-4,5,6,7-tetrahydrobenzo[d]thiazol-6-yl)(propyl)amino)ethyl)cyclohexyl)benzofuran-2-carboxamide]			
	330 ± 69				good aqueous solubility	CCCN(CC[C@H]1CC[C@H](NC(=O)C=Cc2ccccc2)CC1)[C@H]1CCc2nc(N)sc2C1 [Compound 12, Trans-N-(4-(2-(((S)-2-amino-4,5,6,7-tetrahydrobenzo[d]thiazol-6-yl)(propyl)amino)ethyl)cyclohexyl)cinnamamide]	no detectable agonist activity at the D2 receptor; also recorded: no detectable agonist or antagonist activity at the D2 receptor	failed to induce changes in body temperature	effect on induction of hypothermia by pramipexole (D2 receptor [5]): failed to alter the induction of hypothermia by pramipexole
